Starred links: 1 amine or outer side, 2 acyl side, 3 side chain; linkers in the order of their positions; H or OH if unused. Positions of bridges follow the written chain, without caps; N, C: chain ends. Non-standard residues stand in square brackets, D forms with d. Residues, ends and D or L forms follow the SMILES beside them. *: point of attachment. hTyr(3S-OH,4S-OH,3'-OSO3H) = N[C@H](C(=O)O)[C@H](O)[C@@H](O)c1ccc(O)c(OS(=O)(=O)O)c1; Orn(4R-OH,5R-OH) = O=C([C@H](C[C@@H](O)[C@@H](O)N[*:3])N[*:1])[*:2]; Pro(3S-OH,4S-Me) = C[C@H]1CN[C@H](C(=O)O)[C@H]1O; X1 = CCCCCOc1ccc(-c2cc(-c3ccc(C(=O)*)cc3)no2)cc1; Gln(3R-OH) = NC(=O)C[C@@H](O)[C@H](N)C(=O)O; Hyp = O=C(O)[C@@H]1C[C@@H](O)CN1
Legend:
[1] = system: A. fumigatus Af293 and A1163; test: A. fumigatus volatome response to antifungal drug exposure, headspace TD-GC-MS (Example 2); assay type: cell-based, Aspergillus fumigatus; details: 1.0 μg/mL; for all volatile metabolites 36 hours later: 36 hours after the 12-hour sampling
Method: We assessed whether we could modulate the A. fumigatus VOC metabolome with voriconazole, micafungin, and liposomal amphotericin B antifungal drug exposure, as described online (Methods). Headspace volatile metabolites of A. terreus, A. flavus, A. niger, and A. calidoustus were characterized as outlined above, in YPD broth at 96 hours.
Assessment of the A. fumigatus volatome response to antifungal drug exposure: For an assessment of A. fumigatus VOC response to antifungal drug exposure, 10^4A. fumigatus Af293 and A1163 conidia were inoculated into YPD broth and incubated at 37° C. at 250 rpm for 48 hours, then exposed to an inhibitory dose (1.0 μg/mL) of voriconazole (Pfizer Inc., New York, N.Y.), micafungin, liposomal amphotericin (both Astellas Pharma US, Inc., Northbrook, Ill.), or no antifungal therapy for 12 hours, in 4 technical replicates, with matched media controls exposed to the same conditions. VOCs in the headspace of each vial were extracted onto thermal desorption tubes. The cultures and media samples were incubated at 37° C. at 250 rpm for another 36 hours, with repeat extraction of the headspace gas onto thermal desorption tubes.
For both in vitro culture headspace extractions and patient breath samples, VOCs were thermally desorbed onto an automated thermal desorption unit (TD-100, Markes International) at 290° C. for 20 minutes with helium carrier gas at a flow rate of 40 mL per minute and concentrated onto a Unity2/TD-100 cold trap (U-15ATA-2S, Markes International). The cold trap was rapidly heated to 270° C. to deliver adsorbed VOCs (3.5:1 split) to a VF624 capillary column (30 m×0.32 mm, 6% cyanopropyl/phenyl, 94% polydimethylsiloxane, film thickness 1.8 μm, Agilent Technologies, Santa Clara, Calif.) with a gas chromatograph (GC) inlet temperature of 250° C. VOCs delivered to the capillary column were separated using a GC temperature program of 40° C. for 3 minutes, raised to 70° C. at a rate of 5° C. per minute and held for 3 minutes, raised to 203° C. at 7° C. per minute and held for 4 minutes, then rapidly raised to 270° C. and held for 5 minutes. A single quadrupole mass spectrometry (MS) detector (Agilent 5975, Agilent Technologies, Santa Clara, Calif.) was used to analyze and identify VOCs, with a MS source temperature of 230° C., MS quad temperature of 150° C., and an electron ionization parameter of […]. A mass range m/z 40-400 was measured with a threshold of 150.
We assessed whether we could modulate the A. fumigatus VOC metabolome with voriconazole, micafungin, and liposomal amphotericin B antifungal drug exposure. […]

Aspergillus fumigatus = test: Antifungal exposure of 48-hour hyphal cultures, headspace VOC release by GC-MS (Example 1); assay type: cell-based; parameters: increase in some of the key A. fumigatus VOC features / change of key A. fumigatus VOC features at 24 hours: dose or concentration left out as unconfirmed; details: for change of key A. fumigatus VOC features at 24 hours: vs matched controls
Method: For each experiment, 10^4 conidia were inoculated into 5 mL of microbial media (either nutrient Yeast Extract Peptone Dextrose (YPD) broth, nutrient poor Aspergillus minimal media (Pontecorvo et al., Advan Genet 1953; 5:141-238), or under iron-starved, alkaline stress, or nitrogen-depleted conditions (McDonagh et al., PLoS Pathog 2008; 4:e1000154)) in 20 mL glass vials with an airtight crimp top incorporating a rubber septum. Cultures were incubated for 24-144 hours at 200 rpm and 37° C. and headspace gas was dynamically adsorbed, using argon carrier gas and an air sampling pump calibrated to 20 mL/minute, onto Markes thermal desorption traps containing tandem beds of Tenax TA (200 mg), Carbograph 1 TD (100 mg), and Carboxen 1003 (100 mg), optimized to retain VOCs of diverse size and polarity.
Headspace VOCs were also collected after exposure of a subset of fungal isolates to the antifungal drugs voriconazole, liposomal amphotericin B, and micafungin, each at a concentration of […].
VOCs were desorbed onto a dual GC-MS/DMS system (FIG. 1)—the eluent from the gas chromatograph was split between the MS, to allow identification of each compound, and the DMS, an extremely sensitive and selective gas detector that can be easily used as a point-of-care gas detection device, to determine the mobility pattern for each compound. The NIST MS Search 2.0 Library was used to identify VOCs in the total ion chromatogram (TIC) of the GC-MS data. Differences in spectral features of DMS output were visually distinguished between the positive ion spectra of A. fumigatus and A. terreus and principal component analysis (PCA) was used to evaluate the degree of class discrimination between these fungal species using algorithms in MATLAB (Version R2012a).
Whether exposure to antifungal drugs might modulate VOC release in Aspergillus fumigatus was assessed in vitro.

A. terreus isolates = details: Baddley et al. 2009; cited from earlier work
[2] = drug added to 48-hour hyphal cultures, after 24 hours

SMILES	primary metabolite, monoterpene, and sesquiterpene production ([1]; 12 hours of exposure)	all volatile metabolites 36 hours later [1]	change of key A. fumigatus VOC features at 24 hours (Aspergillus fumigatus; [2])	susceptibility of some A. terreus isolates (A. terreus isolates)	β-trans-bergamotene increase from baseline ([1]; 12 hours of exposure, 48-hour hyphae in YPD broth) [fold]	increase in some of the key A. fumigatus VOC features (Aspergillus fumigatus; drug added to 48-hour hyphal cultures, after 24 hours, vs matched control samples without drug) [fold]	change of key A. fumigatus VOC features with longer incubation (Aspergillus fumigatus; longer duration of incubation and hyphal death)
C[C@@H](c1ncncc1F)[C@](O)(Cn1cncn1)c1ccc(F)cc1F [voriconazole]	reduced	attenuation	near-complete attenuation	–	–	–	–
C[C@@H]1[C@H](O)[C@@H](C)/C=C/C=C/C=C/C=C/C=C/C=C/C=C/[C@H](O[C@@H]2O[C@H](C)[C@@H](O)[C@H](N)[C@@H]2O)C[C@@H]2O[C@](O)(C[C@@H](O)C[C@@H](O)[C@H](O)CC[C@@H](O)C[C@@H](O)CC(=O)O[C@H]1C)C[C@H](O)[C@H]2C(=O)O [AMB, amphotericin B]	–	–	–	resistant	–	–	–
CCCCCOc1ccc(-c2cc(-c3ccc(C(=O)N[C@H]4C[C@@H](O)[C@@H](O)NC(=O)[C@@H]5[C@@H](O)[C@@H](C)CN5C(=O)[C@H]([C@H](O)CC(N)=O)NC(=O)[C@H]([C@H](O)[C@@H](O)c5ccc(O)c(OS(=O)(=O)O)c5)NC(=O)[C@@H]5C[C@@H](O)CN5C(=O)[C@H]([C@@H](C)O)NC4=O)cc3)no2)cc1 [micafungin] (X1-[Orn(4R-OH,5R-OH)]T[Hyp][hTyr(3S-OH,4S-OH,3'-OSO3H)][Gln(3R-OH)][Pro(3S-OH,4S-Me)]; lactam 1-C)	–	near-complete attenuation	initial increase	–	10	≤ 17	attenuation

Reference: patent publication US11692212B2, “Diagnosis and treatment of invasive aspergillosis” (The Brigham and Women's Hospital, Inc., priority 2014, dated 2023)
